Where a name gives a salt, the structure may show the parent alone.

The target in the assay is T1, cloned human P2Y1 receptors (Homo sapiens, UniProt P47900).
T1 construct: expressed in transfected cells
Description: Binding Assay A: membrane binding assay, inhibition of [33P] 2MeS-ADP binding (WGA FlashPlates). An excerpt: A membrane binding assay was used to identify inhibitors of [^33P] […] The cDNA clone for human P2Y1 was obtained from Incyte Pharmaceuticals and its sequence confirmed by established techniques (for a compendium of techniques used see Ausubel, F. et al. Current Protocols in Molecular Biology 1995 John Wiley and Sons, NY, N.Y.). The essential coding sequences were subcloned into pcDNA 3.1 (Invitrogen) to produce a P2Y1 expression construct. This construct was then transfected into the human embryonic kidney cell line HEK-293 and stable transfectants selected in Genetcin® (G418 sulfate; Life Technologies). […] Membranes were prepared by growing HEK293 #49 in 150 mm dishes in DMEM/10% FBS in the presence of 1 mg/ml G418 until cells were 80-90% confluent. Plates were then washed with cold (4° C.) D-PBS twice and cells harvested by scraping into 10 mL D-PBS. Cells were pelleted by centrifugation (1,000 g, 10 min, 4° C.) and the resulting pellet resuspended in Lysis Buffer (10 mM Tris (7.4), 5 mM MgCl2 containing Complete® protease inhibitor cocktail (Roche Cat #1873580) as recommended by the manufacturer). The suspension was then homogenized in a Dounce homogenizer (10-15 strokes; B pestle, on ice) and the homogenate spun at 1,000 g, 4° C., 5 min to pellet large debris. The supernatant was centrifuged at 150,000 g, 4° C., for 1 hour and the resulting membrane pellet resuspended in 0.5-1 mL of Buffer B (15 mM HEPES (7.4), 145 mM NaCl, 0.1 mM MgCl2, 5 mM EDTA, 5 mM KCl) and stored at −70° C. until used.
Binding reactions were performed in WGA FlashPlates (PerkinElmer Life Sciences, Cat # SMP105A) in a volume of 200 μL containing ˜45 fmol of P2Y1 receptor (5 μg of total protein), 0.5 nM [^33P] […] Reactions were allowed to proceed to completion at room temperature for 1 hour and then the aqueous solution aspirated. Plates were sealed and the residual [^33P] bound to the plate determined by scintillation counting.

T1 sequence (P47900 whole entry): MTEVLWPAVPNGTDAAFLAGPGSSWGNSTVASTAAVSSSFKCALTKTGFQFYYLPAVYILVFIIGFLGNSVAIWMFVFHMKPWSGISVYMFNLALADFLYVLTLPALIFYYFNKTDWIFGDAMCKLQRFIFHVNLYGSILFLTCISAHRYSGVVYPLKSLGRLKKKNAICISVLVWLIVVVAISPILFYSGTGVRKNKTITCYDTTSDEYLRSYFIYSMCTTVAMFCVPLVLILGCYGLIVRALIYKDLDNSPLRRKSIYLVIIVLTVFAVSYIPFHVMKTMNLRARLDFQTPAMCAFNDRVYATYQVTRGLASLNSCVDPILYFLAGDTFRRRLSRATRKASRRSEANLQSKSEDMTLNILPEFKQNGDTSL

Usually Ki stands for the equilibrium dissociation constant of an inhibitor or competing ligand from its target. For the compound `CC(C)c1ccccc1-c1cn(C(=O)Nc2ccccc2)c2ccccc12` [Example 1, 3-(2-isopropylphenyl)-N-phenyl-1H-indole-1-carboxamide], the affinity, expressed as Ki, was 75 nM. Turning to `CC(C)c1ccccc1-n1cc(C(=O)Nc2ccc(N3CCOCC3)cc2)c2ccccc21` [Example 53, 1-(2-isopropylphenyl)-N-(4-morpholinophenyl)-1H-indole-3-carboxamide 2,2,2-trifluoroacetic acid salt], affinity was put at a Ki of 1210 nM. Regarding `CC(C)c1ccccc1-c1cn(C(=O)Nc2ccc(I)cc2)c2ccccc12` [Example 40, N-(4-iodophenyl)-3-(2-isopropylphenyl)-1H-indole-1-carboxamide], affinity was put at a Ki of 96 nM. Take `CN(C)Cc1ccccc1-c1cn(C(=O)Nc2ccc(OC(F)(F)F)cc2)c2ccccc12` [Example 33, 3-(2-((dimethylamino)methyl)phenyl)-N-(4-(trifluoromethoxy)phenyl)-1H-indole-1-carboxamide bis(2,2,2-trifluoroacetic acid) salt]: the Ki turned out to be 1300 nM. Compared with the last compound, the Ki is about 14-fold higher. Regarding `CC(C)c1ccccc1-c1cn(C(=O)Nc2ccc(N(C)C)cc2)c2ccccc12` [Example 12, N-(4-(dimethylamino)phenyl)-3-(2-isopropylphenyl)-1H-indole-1-carboxamide 2,2,2-trifluoroacetic acid salt], the Ki amounted to 117 nM. The compound `CC(C)c1ccccc1-c1cn(C(=O)Nc2ccc(-c3ccccc3)cc2)c2ccccc12` [Example 27, N-(biphenyl-4-yl)-3-(2-isopropylphenyl)-1H-indole-1-carboxamide] gave a Ki of 144 nM. This Ki and that of the compound before are within 1.5-fold of each other.

The values above are taken from US7960569B2, “Indole antagonists of P2Y1 receptor useful in the treatment of thrombotic conditions” (Bristol-Myers Squibb Company, priority 2006, dated 2011).
